In patent US20150174158A1, “[…] NITRIC OXIDE FOR TREATING RESPIRATORY DISEASES” (Advanced Inhalation Therapies (AIT) Ltd., priority 2012, published 2015):

Key:
[1] = Phase I safety study: hematology, blood chemistry, coagulation; format: in vivo, human; conditions: baseline 0.15 (SD=0.12); SD=0.19; p=0.104
Procedure: (§1) After obtaining informed consent, treatment was initiated within 5 days of enrollment. Subjects were housed in a hospital ward and received 160 ppm gNO for 30 minutes every four hours (Q4h), five times a day, for five consecutive days by inhalation. Subjects returned for follow-up evaluations 3, 7 and 21 days after the final gNO administration. Subject safety was determined by monitoring vital signs, methemoglobin levels, lung function, blood chemistry, hematology, prothrombin time, inflammatory cytokine/chemokines levels and endothelial activation. These parameters were compared to baseline and at various time-points during and after gNO administration.
Hematological assessment included a complete blood count and differentials (hemoglobin, hematocrit, red blood cell count, white blood cell count, white blood cell differential, and platelet count) were obtained in order to monitor blood chemistry, hematology and inflammation measurements. […] The effect of gNO on coagulation was determined by the prothrombin time (PT) and its derived measures of prothrombin ratio (PR) and international normalized ratio (INR). […] Plasma cytokine levels were assessed using the human inflammation cytokine bead array kit (BD Bioscience, Canada). Plasma levels of angiopoietin Ang-1 and Ang-2 were determined by ELISA (R&D Systems, USA).

[2] = Phase I safety study: pulmonary function tests; format: in vivo, human
Procedure: as §1
Subjects underwent full pulmonary function tests (PFT), including lung diffusing capacity (DLCO) by a trained technician utilizing a calibrated pulmonary function system (Jaeger MasterScreen, VIASYS Healthcare, USA) on screening and days 2, 8, 12 and 26. Spirometry test (Microloop by Micro Medical, England) was performed on days 1, 3 and 4. Effect of gNO on lung function and DLCO was determined by changes from baseline, treatment days and follow up days. […]

S. aureus (ATCC) = conditions: 200 ppm gNO; saline; cited from earlier work
P. aeruginosa (ATCC) = conditions: 200 ppm gNO; saline; cited from earlier work
MRSA = conditions: 200 ppm gNO; saline; cited from earlier work
S. maltophilia = conditions: 200 ppm gNO; saline; cited from earlier work
Enterobacter sp. = conditions: 200 ppm gNO; saline; cited from earlier work
E. Coli = conditions: 200 ppm gNO; saline; cited from earlier work
Group B Streptococci = conditions: 200 ppm gNO; saline; cited from earlier work
[3] = system: P. aeruginosa and S. aureus; conditions: cited from earlier work
[4] = system: influenza A/victoria/H3N2; conditions: 160 ppm gNO, cited from earlier work
[5] = system: highly pathogenic Avian Influenza H7N3; conditions: cited from earlier work
[6] = system: five planktonic species of methicillin resistant S. aureous (MRSA); conditions: 1,600 ppm hours of gNO; cited from earlier work
[7] = system: Pseudomonas aeruginosa pneumonia; conditions: 160 ppm gNO, intermittent 30 minute exposures; cited from earlier work

For [N]=O [gNO, nitric oxide], the “eosinophil cell numbers, end of study” value [1] was 0.19 giga/L, the “pulmonary function tests, abnormalities” value ([2]; during and after gNO administration) was “did not reveal any abnormalities” and the “DLCO, FVC, TLC and RV” value ([2]; vs baseline) was “did not change from baseline”. For the same molecule, the “FEV1 and maximum mid-expiratory flow (MMEF)” value ([2]; vs baseline during the course of the study) was “did not differ from baseline”, the LD100 (S. aureus (ATCC)) was 4 h and the “Latent Period” value (S. aureus (ATCC)) was 3 h. The “−2.5 Log10” value (S. aureus (ATCC)) was 3.3 hours, the LD100 (P. aeruginosa (ATCC)) was 3 h and the “Latent Period” value (P. aeruginosa (ATCC)) was 1 h. The “−2.5 Log10” value (P. aeruginosa (ATCC)) was 2.1 hours, the LD100 (MRSA) was 5 h and the “Latent Period” value (MRSA) was 3 h. The “−2.5 Log10” value (MRSA) was 4.2 hours, the LD100 (S. maltophilia) was 4 h and the “Latent Period” value (S. maltophilia) was 2 h. The “−2.5 Log10” value (S. maltophilia) was 2.8 hours, the LD100 (Enterobacter sp.) was 6 h and the “Latent Period” value (Enterobacter sp.) was 4 h. For the same molecule, the “−2.5 Log10” value (Enterobacter sp.) was 5.3 hours, the LD100 (E. Coli) was 5 h and the “Latent Period” value (E. Coli) was 3 h. The “−2.5 Log10” value (E. Coli) was 4.2 hours, the LD100 (Group B Streptococci) was 2 h and the “Latent Period” value (Group B Streptococci) was 1 h. For the same molecule, the “−2.5 Log10” value (Group B Streptococci) was 1.5 hours, the “survival (downward bactericidal trend)” value ([3]; 50-160 ppm gNO vs medical air, agar plates) was 5-10% and the “time required to achieve >90% reduction of colony formation” value ([3]; gNO greater than 120 ppm) was 8 to 12 h. The “reduction of colony formation” value ([3]; levels of gNO greater than 120 ppm, agar plates) was “greater than 90%”, the “infectivity (plaque formation)” value [4] was “capable of reducing the infectivity” and the “anti-viral effect, intermittent vs single exposure” value ([4]; three 30 minute treatments Q4h vs one 30 minute dose) was “more evident in the intermittent form of exposure”. The “infectivity (plaque formation)” value [5] was “capable of reducing the infectivity”, the “population of planktonic MRSA strains” value [6] was “A reduction in the population” and the “pulmonary bioburden and leukocyte infiltration” value [7] was “effective to reduce the pulmonary bioburden and leukocyte infiltration”.
